Reference: patent US20070015733A1, “Aryl Phosphate Derivatives of d4T having Activity Against Resistant HIV Strains” (Parker Hughes Institute, priority 1998, published 2007)
Where two headings read alike, the source gives them in different places.

Legend:
[1] = system: NRTI-resistant recombinant HIV-1 isolates; assay: RT activity assay, multi-NRTI-resistant recombinant HIV-1 clones; assay type: cell-based
HIV-2 (Strain: CBL-20) = assay: Inhibition of HIV-2 replication in PBMNC (RT activity); assay type: cell-based; conditions: Human immunodeficiency virus 2, read-out: HIV-2 IC50 [RT]
Procedure: (P-AZT) and with AZT. The incubation and analysis methods used were as described above for Example 3.
(§1) Cellular Assays of Anti-HIV Activity and Cytotoxicity. […] Percent viral inhibition was calculated by comparing the RT activity values from the test substance-treated infected cells with RT values from untreated infected cells (i.e., virus controls).

[2] = Pharmacokinetics after intravenous or oral administration; assay type: in vivo, mice
[3] = system: Zidovudine-Sensitive Primary Clinical HIV-1 Isolates; assay: p24 drug susceptibility assay, zidovudine-sensitive primary clinical HIV-1 isolates in PBMC; assay type: cell-based; conditions: Human immunodeficiency virus 1, PBMC
Procedure: Antiviral susceptibility assays. Phenotypic drug susceptibility studies of HIV-1 isolates and strains were performed by measuring the production of the p24 gag protein in peripheral blood mononuclear cells (PBMC) from seronegative healthy volunteers in the presence of increasing concentrations of the anti-HIV agent using the quantitative Coulter HIV-1 p24 antigen ezyme immunoassay (EIA) and HIV-1 p24 Antigen Kinetic Standard (Beckman Coulter), as previously described (Uckun, 1998, Antimicrobial Agents and Chemotherapy 37(4): 835-38). Informed consent was obtained from the blood donors according to DHHS guidelines using consent forms approved by the Institutional Review Board. In brief, PBMC were cultured for 72 h in RPMI 1640 medium (Gibco) supplemented with 20% (vol/vol) heat-inactivated fetal bovine serum, 5% human interleukin-2 (Zeptometrix), 2 mM L-glutamine, 25 mM HEPES, 2 g/L NaHCO3, 100 U/ml penicillin/streptomycin (Gibco), 50 μg/ml gentamicin (Gibco), and 5 μg/ml phytohemagglutinin-P (PHA-P) (Sigma) for 24-72 hours prior to exposure to HIV at a multiplicity of infection of 0.001-0.1 during a 1-h adsorbtion period at 37±1° C. in a humidified 5-7% CO2 atmosphere. Subsequently, cells were cultured in 96-well microtiter plates (100 μl/well; 2×10^6 cells/ml, triplicate wells) in the presence of the anti-HIV agents at 6-7 different concentrations ranging from 0.0001 μM to 100 μM, and 25 μL aliquots of culture supernatants were removed from the wells on day 6 after infection for p24 EIA, as previously described (Uckun, 1998, Antimicrobial Agents and Chemotherapy, 37(4):835-38). Controls included uninfected and untreated cells (background control) and infected but untreated (virus control) cells. The p24 EIA utilizes a murine monoclonal antibody to HIV core protein used to coat microwell strips to which the antigen present in the test culture supernatant samples binds. Percent inhibition of viral replication was calculated by comparing the p24 values from the test substance-treated infected cells with p24 values from untreated infected cells (i.e., virus controls). The IC50 values were determined using the Statview statistics program (SAS Institute, Inc.). In parallel, the effects of various treatments on cell viability were also examined as previously described (Uckun, 1998, Antimicrobial Agents and Chemotherapy, 42:383-388). In brief, noninfected PBMC were treated with each compound for 5 days under identical experimental conditions. A microculture tetrazolium assay (MTA) was performed to quantitate cellular proliferation (Uckun, 1998, Antimicrobial Agents and Chemotherapy, 42:383-388).
Phenotypic drug susceptibility studies of HIV-1 isolates and strains were performed by measuring the production of the p24 gag protein in peripheral blood mononuclear cells (PBMC) from seronegative healthy volunteers in the presence of increasing concentrations of the anti-HIV agent using the quantitative Coulter HIV-1 p24 antigen enzyme immunoassay (EIA) and HIV-1 p24 Antigen Kinetic Standard (Beckman Coulter), as previously described. StatView was used in the calculation of the IC50 values from each set of triplicate wells using the linearized form of an exponential equation (lnY=lnb0+b1X; where Y=% inhibition, X=drug concentration). The inhibition constants were log10 transformed to homogenize the variances within each group. […] P-values below 0.05 were deemed significant (JMP Software, SAS).

[4] = system: AZT- and NNI-resistant HIV-1 (strain: RTMDR-1); assay: Inhibition of RTMDR-1 (HIV-MDR) replication in PBMNC (RT activity); assay type: cell-based
Procedure: as §1

[5] = system: zidovudine-resistant primary clinical HIV-1 isolates in CD4-expressing HeLa cell line HT4-6C; assay: Syncytial focus (plaque) formation assay in HT4-6C cells; assay type: cell-based; conditions: Human immunodeficiency virus 1, HeLa
Procedure: Plaque formation assays. The syncytial focus (plaque) assay permits quantitation of infectivity of HIV. In brief, a CD4-expressing HeLa cell line (HT4-6C) (AIDS Research and Reference Reagent Program, NIAID) is cultured in 24-well tissue culture plates at 2.5-3.0×10^4 cells/ml in the presence of virus inoculum (100 plaque forming units) and several concentrations of the antiviral agent. The virus was added first for a 2 hr incubation time prior to addition of the antiviral agents. […] Percent inhibition of plaque formation was calculated by comparing the plaque numbers from the test substance-treated infected cells with the plaque numbers from untreated infected cells (i.e., virus controls).

[6] = multi-NRTI-resistant clones, IC50 RT

## COC(=O)C(C)NP(=O)(OC[C@@H]1C=C[C@H](n2cc(C)c(=O)[nH]c2=O)O1)Oc1ccc(Br)cc1 (stereo partly drawn) [Compound 1c, d4T-5′-[p-bromo-phenylmethoxyalaninyl phosphate]]
[1]; Human immunodeficiency virus 1, read-out: IC50 (nM), RT, recombinant clone 1617-1
  IC50: 5.8 nM
[1]; Human immunodeficiency virus 1, read-out: IC50 (nM), RT, recombinant clone 4755-5
  IC50: 0.6 nM
[1]; Human immunodeficiency virus 1, read-out: IC50 (nM), RT, recombinant clone 7295-1
  IC50: 0.2 nM
[1]; Human immunodeficiency virus 1, read-out: IC50 (nM), RT, recombinant clone 7324-1
  IC50: 0.8 nM
[1]; Human immunodeficiency virus 1, read-out: IC50 (nM), RT, recombinant clone 52534-2
  IC50: 4.6 nM
[1]; Human immunodeficiency virus 1, read-out: IC50 (nM), RT, recombinant clone 56252-1
  IC50: 6.3 nM
[1]; Human immunodeficiency virus 1, read-out: mean IC50, RT, mean over 6 multi-NRTI-resistant clones
  IC50: 3.1 ± 1.2 nM
[1]; [6]
  logs more potent than lamivudine: > 3.4 logs
  logs more potent than zidovudine(AZT): > 1.4 logs
HIV-2 (Strain: CBL-20)
  IC50: 400 nM
[2]; after oral administration
  parent compound in blood: No parent d4T-5′-[p-bromophenyl methoxyalaninyl phosphate] was detectable
[2]; intravenous administration
  elimination half-life (t1/2) of the administered substance: 3.5 min
[3]; primary isolate RW/92/8 (V179I), Table 14
  IC50: 0.0008 µM
[3]; read-out: IC50, μM (p24), Mean ± SE, mean over 10 zidovudine-sensitive clinical isolates
  IC50: 0.002 ± 0.001 µM
[3]; read-out: IC50, μM (p24), isolate 92BR003 (B/B, Brazil), PBMC
  IC50: 0.0006 µM
[3]; read-out: IC50, μM (p24), isolate 92BR025 (C/C, Brazil), PBMC
  IC50: 0.001 µM
[3]; read-out: IC50, μM (p24), isolate 92RW008 (—/A, Rawanda), PBMC
  IC50: 0.0008 µM
[3]; read-out: IC50, μM (p24), isolate 92RW016 (subtype A/A, Rawanda), PBMC
  IC50: 0.003 µM
[3]; read-out: IC50, μM (p24), isolate 93BR019 (—/BF, Brazil), PBMC
  IC50: 0.0008 µM
[3]; read-out: IC50, μM (p24), isolate 93BR020 (F/F, Brazil), PBMC
  IC50: 0.007 µM
[3]; read-out: IC50, μM (p24), isolate 93BR029 (F/B, Brazil), PBMC
  IC50: 0.0008 µM
[3]; read-out: IC50, μM (p24), isolate 93IN101 (—/C, India), PBMC
  IC50: 0.0005 µM
[3]; read-out: IC50, μM (p24), isolate HIV-1G3 (—/G, Nigeria), PBMC
  IC50: 0.0005 µM
[3]; read-out: IC50, μM (p24), isolate HIV-1JV1083 (—/G, Nigeria), PBMC
  IC50: 0.001 µM
[4]; Human immunodeficiency virus 1, read-out: HIV-MDR IC50 [RT]
  IC50: 20 nM
[4]; Human immunodeficiency virus 1, read-out: IC50 against HIV-MDR
  IC50: 20 nM
[4]; Human immunodeficiency virus 1, read-out: RTMDR-1 IC50 [RT]
  IC50: 20 nM
[5]; read-out: IC50, μM(Plaque Assay), Mean ± SE, mean over 9 zidovudine-resistant isolates
  IC50: 0.0794 ± 0.0187 µM
[5]; read-out: IC50, μM(Plaque Assay), isolate G190-6 (M41L, D67N, K70R, T215Y, K219Q)
  IC50: 0.1 µM
[5]; read-out: IC50, μM(Plaque Assay), isolate G691-2 (mutations N.D.)
  IC50: 0.06 µM
[5]; read-out: IC50, μM(Plaque Assay), isolate G704-2 (M41L, D67N, K70R, L210W, T215Y)
  IC50: 0.08 µM
[5]; read-out: IC50, μM(Plaque Assay), isolate G780-1 (M41L, D67N, K70R, T215F, K219Q)
  IC50: 0.015 µM
[5]; read-out: IC50, μM(Plaque Assay), isolate G890-1 (K20R, M41L, D67N, T69N, K70R, L210W, T215Y)
  IC50: 0.04 µM
[5]; read-out: IC50, μM(Plaque Assay), isolate H112-2 (no RT mutation, ZDV-sensitive control)
  IC50: 0.015 µM
[5]; read-out: IC50, μM(Plaque Assay), isolate J179-1 (M41L, D67N, L210W, T215Y)
  IC50: 0.18 µM
[5]; read-out: IC50, μM(Plaque Assay), isolate M709-1 (L1210W, T215Y)
  IC50: 0.08 µM
[5]; read-out: IC50, μM(Plaque Assay), isolate Q252-2 (M41L, L210W, T215Y)
  IC50: 0.11 µM
[5]; read-out: IC50, μM(Plaque Assay), isolate U317-8 (M41L, L210W, T215Y)
  IC50: 0.03 µM
[5]; read-out: mean IC50 value (plaque assay), mean over 9 zidovudine-resistant isolates
  IC50: 0.0794 ± 0.0187 µM
